Data published in patent publication US6645960B1, “Antifungal sordaricin derivatives” (Glaxo Wellcome S.A., priority 1999, dated 2003).

Columns and labels:
Candida albicans 4711 = experiment: standard in vitro screen, minimum inhibiting concentration (MIC) by two-fold serial dilution, in the presence or absence of mouse serum; type: cell-based; conditions: for MIC C.albicans4711: absence of mouse serum; for MIC 50%serum C.albicans4711: presence of 50% mouse serum
Method: The in vitro evaluation of the anti-fungal activity of compounds of the invention was performed on liquid or solid medium by the anti-fungal two-fold serial dilution technique of determining the minimum inhibitory concentration (MIC) of anti-fungal agent that inhibited development of growth after 24 to 48 hours of incubation at 37° C. For example a series of agar plates or broth microdilution panels containing two-fold dilutions of anti-fungal agent were inoculated with a standard culture of a clinically relevant pathogen, in the presence and absence of activated or inactivated serum. The agar plates or broth microdilution panels were then examined for the presence or absence of growth of the fungus and the appropriate MIC values determined. […] Compounds of formula (I) have been tested for antifungal activity in a standard in vitro screen and the minimum inhibiting concentration (MIC;μg/ml) determined for each compound against a relevant strain of Candida albicans in the presence or absence of mouse serum.

[1] = test system: battery of fungal organisms; conditions: tested against a battery of fungal organisms; cited from earlier work

Compound	MIC 50%serum C.albicans4711 (Candida albicans 4711) [µg/mL]	MIC C.albicans4711 (Candida albicans 4711; hydrochloride) [µg/mL]	MIC 50%serum C.albicans4711 (Candida albicans 4711; hydrochloride) [µg/mL]	antifungal activity [1]	other results
[[1R-(1α,3aβ,4β,4aβ,7β,7aα,8aβ)]8a-[(2R,6R)-(4-allyl-6-methyl-morpholin-2-yl)-oxymethyl]-4-formyl-4,4a,5,6,7,7a,8,8a-octahydro-7-methyl-3-(1-methylethyl)-1,4-methano-s-indacene-3a(1H)-carboxylic acid, pivaloyloxymethyl ester hydrochloride [Example 5]	0.05				MIC C.albicans4711 (Candida albicans 4711): >125 µg/mL
C=CCN1C[C@H](OC[C@@]23C[C@@H]4[C@H](C)CC[C@H]4[C@@]4(C=O)C[C@@H]2C=C(C(C)C)[C@@]34C(=O)OC(C)OC(=O)OCC)O[C@H](C)C1.Cl (single isomer, unassigned) [Example 2]		8	0.12		
C/C=C/C=C\C(=O)O[C@H]1[C@H](O)[C@H](OCC23C[C@@H]4[C@H](C)CC[C@H]4C4(C=O)CC2C=C(C(C)C)C34C(=O)O)O[C@H](C)[C@H]1OC (stereo partly drawn) [zofimarin]				only moderately active	
CO[C@H]1[C@@H](O)[C@H](O)[C@H](OC[C@@]23C[C@@H]4[C@H](C)CC[C@H]4[C@@]4(C=O)CC2C=C(C(C)C)[C@@]34C(=O)O)O[C@@H]1C [sordarin]				only moderately active	
[[1R-(1α,3aβ,4β,4aβ,7β,7aα,8aβ)]8a-[(2R,6R)-(4-allyl-6-methyl-morpholin-2-yl)-oxymethyl]-4-formyl-4,4a,5,6,7,7a,8,8a-octahydro-7-methyl-3-(1-methylethyl)-1,4-methano-s-indacene-3a(1H)-carboxylic acid, phthalidyl ester hydrochloride [Example 4]	0.25				
C=CCN1C[C@H](OC[C@@]23C[C@@H]4[C@H](C)CC[C@H]4[C@@]4(C=O)C[C@@H]2C=C(C(C)C)[C@@]34C(=O)OC(C)OC(=O)OCC)O[C@H](C)C1.Cl (single isomer, unassigned) [Example 3]		62	0.06		
